Experimental data: patent publication US12612412B2, “Antiviral heterocyclic compounds” (Enanta Pharmaceuticals, Inc., priority 2021, dated 2026)

Key:
[1] = tested on: genotype A, "Long" strain RSV; assay: RSV-A assay (CPE protection in Hep-2 cells, ATPlite readout); assay type: cell-based, Human respiratory syncytial virus (HRSV); settings: human respiratory syncytial virus, RSV-A Long strain, MOI 0.1, CPE protection, read-out: Human RSV-A (“Long”) EC50
How it was run: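 In this cytopathic-effect protection format, infected Hep-2 cultures (MOI 0.1) are exposed to compound for 5 days. Surviving cell ATP is quantified with ATPlite, and EC50 is determined.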

[2] = tested on: HMPV clinical isolate TN/1501/A1; assay: HMPV antiviral assay Method-B (clinical isolate TN/1501/A1 in LLC-MK2 cells, ATP-Lite readout); assay type: cell-based, Human metapneumovirus (HMPV); settings: human metapneumovirus, LLC-MK2, 144 h, hMPV WT1501 (clinical isolate TN/1501/A1), 6 days
How it was run: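 EC50 derived by four-parameter logistic fit of percent cell health, measured by ATP-Lite luminescence and normalised to virus-only and uninfected-cell controls. Compounds run in duplicate from 10 μM top, 3-fold, 10 points. Infection: LLC-MK2 cells, MOI 0.014, 2 μg/mL final TPCK-trypsin, serum-free, 6 days at 37° C.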

COc1cc(C(=O)NC[C@](O)(c2cc3c(c(-c4ccc(F)c(Cl)c4)n2)OC[C@]3(C)C(N)=O)C2CC2)cc2cn(C3(Cl)CC3)nc12 [Example 841]
EC50 [1]: < 200 nM
EC50 [2]: < 500 nM

COc1cc(C(=O)NC[C@](O)(c2cc3c(c(-c4cc(Cl)ccc4F)n2)OC[C@]3(C)C(N)=O)C2CC2)cc2cn(C3(Cl)CC3)nc12 [Example 842]
EC50 [1]: < 200 nM
EC50 [2]: < 500 nM

COc1cc(C(=O)NC[C@](O)(c2cc3c(c(-c4ccc(Cl)cc4F)n2)OC[C@]3(C)C(N)=O)C2CC2)cc2cn(C3(Cl)CC3)nc12 [Example 843]
EC50 [1]: < 200 nM
EC50 [2]: < 500 nM

COc1cc(C(=O)NC[C@](O)(c2cc3c(c(-c4ccc(F)cc4Cl)n2)OC[C@]3(C)C(N)=O)C2CC2)cc2cn(C3(Cl)CC3)nc12 [Example 844]
EC50 [1]: < 200 nM
EC50 [2]: < 500 nM

COc1cc(C(=O)NC[C@](O)(c2cc3c(c(-c4ccc(F)c(C(F)(F)F)c4)n2)OC[C@]3(C)C(N)=O)C2CC2)cc2cn(C3(Cl)CC3)nc12 [Example 845]
EC50 [1]: < 200 nM
EC50 [2]: < 500 nM

C[C@]1(C(N)=O)COc2c1cc([C@@](O)(CNC(=O)c1cc(OC3CC3)c3nn(C4(F)CC4)cc3c1)C1CC1)nc2-c1ccc2c(c1)OC(F)(F)O2 [Example 846]
EC50 [1]: < 200 nM
EC50 [2]: < 500 nM

C[C@]1(C(N)=O)COc2c1cc([C@@](O)(CNC(=O)c1cc(OC3CC3)c3nn(C(F)F)cc3c1)C1CC1)nc2-c1ccc2c(c1)OC(F)(F)O2 [Example 847]
EC50 [1]: < 200 nM
EC50 [2]: < 500 nM

C[C@]1(C(N)=O)COc2c1cc([C@@](O)(CNC(=O)c1cc(F)c3nn(C4(F)CC4)cc3c1)C1CC1)nc2-c1ccc2c(c1)OC(F)(F)O2 [Example 848]
EC50 [1]: < 200 nM
EC50 [2]: < 500 nM

C[C@]1(C(N)=O)COc2c1cc([C@@](O)(CNC(=O)c1cc(Cl)c3nn(C4(F)CC4)cc3c1)C1CC1)nc2-c1ccc2c(c1)OC(F)(F)O2 [Example 849]
EC50 [1]: < 200 nM
EC50 [2]: < 500 nM

COc1cc(C(=O)NC[C@](O)(c2nc(-c3ccc(F)cc3)c3c(c2F)[C@](C)(C(N)=O)CO3)C(F)(F)F)cc2cn(C3CC3)nc12 [Example 850]
EC50 [1]: < 200 nM
EC50 [2]: > 500 nM

COc1cc(C(=O)NC[C@](O)(c2nc(-c3ccc(F)cc3)c3c(c2F)[C@@](C)(C(N)=O)CO3)C(F)(F)F)cc2cn(C3CC3)nc12 [Example 851]
EC50 [1]: < 200 nM
EC50 [2]: < 500 nM

COc1cc(C(=O)NC[C@](O)(c2nc(-c3ccc(F)cc3)c3c(c2F)[C@](C)(C(N)=O)CO3)C(F)(F)F)cc2cn(C(F)F)nc12 [Example 852]
EC50 [1]: < 200 nM
EC50 [2]: > 500 nM

COc1cc(C(=O)NC[C@](O)(c2nc(-c3ccc(F)cc3)c3c(c2F)[C@@](C)(C(N)=O)CO3)C(F)(F)F)cc2cn(C(F)F)nc12 [Example 853]
EC50 [1]: < 200 nM
EC50 [2]: < 500 nM

COc1cc(C(=O)NC[C@](O)(c2nc(-c3ccc(F)cc3)c3c(c2F)[C@](C)(C(N)=O)CO3)C(F)(F)F)cc2cc(Cl)c(C)nc12 [Example 854]
EC50 [1]: > 200 nM
EC50 [2]: > 500 nM

COc1cc(C(=O)NC[C@](O)(c2nc(-c3ccc(F)cc3)c3c(c2F)[C@@](C)(C(N)=O)CO3)C(F)(F)F)cc2cc(Cl)c(C)nc12 [Example 855]
EC50 [1]: < 200 nM
EC50 [2]: < 500 nM

C[C@]1(C(N)=O)COc2c1cc([C@@](O)(CNC(=O)c1cc(Cl)c3nn(C(F)F)cc3c1)C1CC1)nc2-c1ccc2c(c1)OC(F)(F)O2 [Example 856]
EC50 [1]: < 200 nM
EC50 [2]: < 500 nM

COc1cc(C(=O)NC[C@](O)(c2nc(-c3ccc4c(c3)OC(F)(F)O4)c3c(c2F)[C@@](C)(C(N)=O)CO3)C2CC2)cc2cn(C3CC3)nc12 [Example 857]
EC50 [1]: < 200 nM
EC50 [2]: < 500 nM

C[C@]1(C(N)=O)COc2c(-c3ccc4c(c3)OC(F)(F)O4)nc([C@@](O)(CNC(=O)c3cc(Cl)c4nn(C5CC5)cc4c3)C3CC3)c(F)c21 [Example 858]
EC50 [1]: < 200 nM
EC50 [2]: < 500 nM

COc1cc(C(=O)NC[C@](O)(c2nc(-c3ccc4c(c3)OC(F)(F)O4)c3c(c2F)[C@@](C)(C(N)=O)CO3)C2CC2)cc2cn(C3(F)CC3)nc12 [Example 859]
EC50 [1]: < 200 nM
EC50 [2]: < 500 nM
